Earlier results in patent US9199951B2, “Process for the manufacture of a 1,2-epoxide” (Hexion Inc., priority 2008, dated 2015).
≈ marks a conversion by molar mass, not a printed value.

Conditions: grams per liter water at 20° C.; for Solubility in water: terminal olefins of Table 2

For `C=CCCCCCC` [1-octene], the Solubility in water is given as 0.27 µg/mL (≈ 2.41 µM).
In the case of `C=CCOC(C)=O` [Allyl acetate], the solubility is listed as “about 10 g/L” and the Solubility in water is listed as ~10000 µg/mL.
In the case of `C=CCO` [Allyl alcohol], the Solubility in water is listed as “miscible”.
In the case of `C=CCCl` [Allyl chloride], the solubility is listed as 3600 µg/mL and the Solubility in water is listed as 3600 µg/mL.
For `C=CCBr` [allyl bromide], the solubility is given as 4000 µg/mL.
